The values below come from patent US10538512B2, “Aminoacylindazole immunomodulators for treatment of autoimmune diseases” (The Rockefeller University, priority 2016, dated 2020).

Bounds are passed on as bounds.

The target in the experiment is T1, Human FXIIa (Homo sapiens, UniProt P00748).
T1 construct: active coagulation factor XII (FXIIa); purchased Enzyme Research Labs
T1 sequence (P00748 373-615 limits assumed): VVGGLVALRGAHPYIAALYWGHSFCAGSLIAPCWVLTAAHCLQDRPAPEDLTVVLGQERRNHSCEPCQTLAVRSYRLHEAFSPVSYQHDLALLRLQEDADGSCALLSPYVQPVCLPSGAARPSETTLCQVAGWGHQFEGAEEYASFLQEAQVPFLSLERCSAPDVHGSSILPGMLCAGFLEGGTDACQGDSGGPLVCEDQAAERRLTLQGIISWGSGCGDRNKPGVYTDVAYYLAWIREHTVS
T1 sequence (P00748 20-372 partner limits assumed): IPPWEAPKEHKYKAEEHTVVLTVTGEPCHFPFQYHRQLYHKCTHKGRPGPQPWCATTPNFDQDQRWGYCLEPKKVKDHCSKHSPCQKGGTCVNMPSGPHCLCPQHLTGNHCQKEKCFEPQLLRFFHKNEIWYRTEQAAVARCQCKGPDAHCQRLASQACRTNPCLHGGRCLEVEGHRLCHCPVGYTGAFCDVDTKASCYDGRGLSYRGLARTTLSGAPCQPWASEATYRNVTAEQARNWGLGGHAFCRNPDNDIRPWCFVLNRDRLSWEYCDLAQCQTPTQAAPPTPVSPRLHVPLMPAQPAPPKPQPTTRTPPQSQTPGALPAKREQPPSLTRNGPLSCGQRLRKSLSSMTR
The experiment in a line: Factor XIIa (FXIIa) inhibitory activity, chromogenic substrate assay. It counts as biochemical. Conditions: Human FXIIa 12.5 nM, Pefachrome XIIa 400 μM, 10 min preincubation. The method, then: Factor XIIa (FXIIa) Inhibitory Activity:
In a 96-well clear bottom plate, 80 μl of assay buffer was added to each well. Assay buffer consists of 0.5× Hank's Balanced Salt Solution (Invitrogen), buffered with 25 mM HEPES pH 7.4 (Invitrogen) and 0.5× Tris-buffered saline with Tween-20 0.05% (Santa Cruz Biotechnology). Test compounds were first dissolved in DMSO (Sigma) and then 4 μl were added to test wells containing assay buffer. Serial dilutions using an automated multi-channel pipette were used to generate a concentration range of approximately 1-100 μM. […] 80 μl of this enzyme solution was added to the assay wells. The enzyme/compound mixtures were incubated for 10 minutes at room temperature. Chromogenic substrate (Pefachrome XIIa; Enzyme Research Labs) was added to assay wells at a final concentration of 400 μM. The assay plate was spun for 1 minute at 1500 g and then read at 37° C. in a SpectraMax M2 plate reader (λ=405 nm). Activity was quantified as the rate of change in absorbance, which corresponds to the rate of substrate cleavage.

One may read the IC50 as the concentration that gives 50% inhibition. Higher therefore signals weaker potency in that assay. For the compound `Cc1csc(C)c1C(=O)n1nc2c(c1N)CCCC2` (single isomer, unassigned) [Example 16, (3-Amino-4,5,6,7-tetrahydroindazol-2-yl)(2,4-dimethylthiophen-3-yl)methanone], the IC50 came out at 15 µM.
Next, `CN1CCC(C(=O)n2nc3c(c2N)CCCC3)c2ccccc21` (single isomer, unassigned) [Example 25, (3-Amino-4,5,6,7-tetrahydroindazol-2-yl)(1-methyl-1,2,3,4-tetrahydroquinolin-4-yl)methanone]: 0.3 µM.
The result for `Nc1c2c(nn1C(=O)c1cccc3[nH]ncc13)CCCC2` [Example 47, (3-amino-4,5,6,7-tetrahydroindazol-2-yl)(1H-indazol-4-yl)methanone] reads 0.03 µM; that for `Cc1cc2c(C(=O)n3nc(N)c4c3CCC(OCc3ccccc3)C4)cccc2[nH]1` (stereo not shown) [Example 118, (3-amino-5-(benzyloxy)-4,5,6,7-tetrahydroindazol-1-yl)(2-methyl-1H-indol-4-yl)methanone], 20 µM.
The result for `CCc1cc2c([nH]1)CCCC2C(=O)n1nc2c(c1N)CCCC2` (single isomer, unassigned) [Example 83, (S*)-(3-amino-4,5,6,7-tetrahydroindazol-2-yl)(2-ethyl-4,5,6,7-tetrahydro-1H-indol-4-yl)methanone] reads 0.02 µM.
In turn, `Nc1nn(C(=O)[C@@H]2CCNc3ccc(Cl)cc32)c2c1C[C@@H](O)CC2` (single isomer, unassigned) [Example 145, ((5S*)-3-amino-5-hydroxy-4,5,6,7-tetrahydroindazol-1-yl)((4R*)-6-chloro-1,2,3,4-tetrahydroquinolin-4-yl)methanone] gave an IC50 above 80 µM.
The result for `CO[C@@H]1CCc2nn(C(=O)[C@H]3CCNc4ccc(F)cc43)c(N)c2C1` (single isomer, unassigned) [Example 179, ((5R*)-3-amino-5-methoxy-4,5,6,7-tetrahydroindazol-2-yl)((4S*)-6-fluoro-1,2,3,4-tetrahydroquinolin-4-yl)methanone] reads 28 µM.
In turn, `Nc1c2c(nn1C(=O)[C@@H]1CCNc3ccc(F)cc31)C[C@H](O)CC2` (single isomer, unassigned) [Example 184, ((6R*)-3-amino-6-hydroxy-4,5,6,7-tetrahydroindazol-2-yl)((4R*)-6-fluoro-1,2,3,4-tetrahydroquinolin-4-yl)methanone] displayed an IC50 above 100 µM.
Next, `Nc1c2c(nn1C(=O)[C@@H]1CCNc3ccc(Cl)cc31)CC[C@@H](O)C2` (single isomer, unassigned) [Example 147, ((5R*)-3-amino-5-hydroxy-4,5,6,7-tetrahydroindazol-2-yl)((4R*)-6-chloro-1,2,3,4-tetrahydroquinolin-4-yl)methanone]: 33 µM; `Nc1c2c(nn1C(=O)[C@H]1CCNc3c(Cl)cccc31)C[C@@H](O)CC2` (single isomer, unassigned) [Example 207, ((6S*)-3-amino-6-hydroxy-4,5,6,7-tetrahydroindazol-2-yl)((4S*)-8-chloro-1,2,3,4-tetrahydroquinolin-4-yl)methanone]: 0.16 µM.
Next, `Nc1nn(C(=O)[C@@H]2CCNc3ccc(Cl)cc32)c2c1C[C@H](O)CC2` (single isomer, unassigned) [Example 149, ((5R*)-3-amino-5-hydroxy-4,5,6,7-tetrahydroindazol-1-yl)((4R*)-6-chloro-1,2,3,4-tetrahydroquinolin-4-yl)methanone]: above 40 µM; `Cc1cccc2c1NCC[C@H]2C(=O)n1nc2c(c1N)C[C@H](O)CC2` (single isomer, unassigned) [Example 217, ((5R*)-3-amino-5-hydroxy-4,5,6,7-tetrahydro-2H-indazol-2-yl)((4R*)-8-methyl-1,2,3,4-tetrahydroquinolin-4-yl)methanone]: 35 µM; `Cc1cccc2c1NCCC2C(=O)n1nc2c(c1N)C=CCC2` (single isomer, unassigned) [Example 194, (R*)-(3-amino-6,7-dihydroindazol-2-yl)(8-methyl-1,2,3,4-tetrahydroquinolin-4-yl)methanone]: 7 µM.
In turn, `Nc1c2c(nn1C(=O)C1CCNc3ccccc31)CCCC2` (single isomer, unassigned) [Example 78, (R*)-(3-amino-4,5,6,7-tetrahydroindazol-2-yl)(1,2,3,4-tetrahydroquinolin-4-yl)methanone] showed a half-maximal inhibitory concentration (IC50) of 0.15 µM.
Compound `Nc1c2c(nn1C(=O)[C@@H]1CCNc3ccc(F)cc31)CC[C@H](F)C2` (single isomer, unassigned) [Example 141, ((5S*)-3-amino-5-fluoro-4,5,6,7-tetrahydroindazol-2-yl)((4R*)-6-fluoro-1,2,3,4-tetrahydroquinolin-4-yl)methanone] gave an IC50 of 17 µM.
`Nc1nn(C(=O)[C@@H]2CCNc3ccc(F)cc32)c2c1C[C@@H](O)CC2` (single isomer, unassigned) [Example 136, ((5S*)-3-amino-5-hydroxy-4,5,6,7-tetrahydroindazol-1-yl)((4R*)-6-fluoro-1,2,3,4-tetrahydroquinolin-4-yl)methanone]: the IC50 was above 90 µM.
The result for `Nc1c2c(nn1C(=O)c1ccnc3ccccc13)CCCC2` [Example 158] reads 13 µM.
The result for `Cn1cc2c(n1)CCCC2C(=O)n1nc2c(c1N)CCCC2` (stereo not shown) [Example 88, (3-amino-4,5,6,7-tetrahydroindazol-2-yl)(2-methyl-4,5,6,7-tetrahydro-2H-indazol-4-yl)methanone] reads 0.85 µM.
The compound `Nc1c2c(nn1C(=O)C1CCNc3ccc(F)cc31)CCC(F)(F)C2` (single isomer, unassigned) [Example 174, (R*)-(3-amino-5,5-difluoro-4,5,6,7-tetrahydroindazol-2-yl)(6-fluoro-1,2,3,4-tetrahydroquinolin-4-yl)methanone] returned an IC50 above 80 µM.
The result for `Cc1cc2c(C(=O)n3nc4c(c3N)CCCC4)cccc2s1` [Example 57, (3-Amino-4,5,6,7-tetrahydro-indazol-2-yl)-(2-methyl-benzo[b]thiophen-4-yl)-methanone] reads 0.06 µM; that for `Nc1c2c(nn1C(=O)C1CCCc3[nH]ccc31)CCCC2` (single isomer, unassigned) [Example 94, (S*)-(3-amino-4,5,6,7-tetrahydroindazol-2-yl)(4,5,6,7-tetrahydro-1H-indol-4-yl)methanone], 0.25 µM.
Turning to `CCc1cc2c([nH]1)CCCC2C(=O)n1nc2c(c1N)CCCC2` (single isomer, unassigned) [Example 84, (R*)-(3-amino-4,5,6,7-tetrahydroindazol-2-yl)(2-ethyl-4,5,6,7-tetrahydro-1H-indol-4-yl)methanone], 3.3 µM corresponded to half-maximal inhibition (IC50).
Next, `COC1CCc2nn(C(=O)c3cccc4[nH]c(C)cc34)c(N)c2C1` (stereo not shown) [Example 119, (3-amino-5-methoxy-4,5,6,7-tetrahydro-2H-indazol-2-yl)(2-methyl-1H-indol-4-yl)methanone]: 0.05 µM; `CCc1cc2c(C(=O)n3nc4c(c3N)CCCC4)ccnc2[nH]1` [Example 113, (3-amino-4,5,6,7-tetrahydro-2H-indazol-2-yl)(2-ethyl-1H-pyrrolo[2,3-b]pyridin-4-yl)methanone]: 0.05 µM.
The result for `Nc1c2c(nn1C(=O)C1CCNc3cc(F)ccc31)CCCC2` (stereo not shown) [Example 115, (3-amino-4,5,6,7-tetrahydroindazol-2-yl)(7-fluoro-1,2,3,4-tetrahydroquinolin-4-yl)methanone] reads 0.4 µM.
Turning to `Nc1nn(C(=O)C2CCNc3ccc(F)cc32)c2c1CC(F)CC2` (single isomer, unassigned) [Example 142, ((5S*)-3-amino-5-fluoro-4,5,6,7-tetrahydroindazol-1-yl)((4R/S)-6-fluoro-1,2,3,4-tetrahydroquinolin-4-yl)methanone], the IC50 worked out at 65 µM.
The result for `Nc1c2c(nn1C(=O)[C@@H]1CCNc3c(Cl)cccc31)C[C@@H](O)CC2` (single isomer, unassigned) [Example 206, ((6S*)-3-amino-6-hydroxy-4,5,6,7-tetrahydroindazol-2-yl)((4R*)-8-chloro-1,2,3,4-tetrahydroquinolin-4-yl)methanone] reads 2.8 µM; that for `Nc1c2c(nn1C(=O)C1CCNc3ccc(F)cc31)CCC(NC(=O)OCc1ccccc1)C2` (single isomer, unassigned) [Example 186, benzyl (5R*)-3-amino-2-(6-fluoro-1,2,3,4-tetrahydroquinoline-4-carbonyl)-4,5,6,7-tetrahydro-2H-indazol-5-ylcarbamate], 2.5 µM.
